Experimental data from patent US8440613B2, “Controlling diseases caused by trichomonadida” (Bayer Intellectual Property GmbH, priority 2008, dated 2013).

Test system: histomonad field strain
Experiment: Cage experiments; histomonad activity in turkeys
Format: in vivo
Conditions: nitarsone 187.5 ppm in feed, day -4 to +14; for Average lesions in the appendix / Infection-related lesions in the liver: score 0=no lesions, 4=severe lesions
Procedure: Histomonad-free male turkeys aged 10 days received nifurtimox or the comparative compound nitarson in the concentration given in “ppm” together with the feed from day −4 (=4 days prior to infection) to day 14. Infection is carried out on day 0, 10 animals are kept per group cage. 1 to 3 such groups are employed per dose.
The infection is carried out with a histomonad field strain which is passaged in the laboratory and stored in liquid nitrogen. On day 0, in each case 5 animals of a cage (with the exception of the noninfected control) are infected intracloacally with 250 000 histomonads in each case 1 ml of Dwyer's medium (=direct infection). After a few days, these infected animals excrete fresh histomonads and thus transmit the pathogen to the remaining 5 animals of the cage (=indirect infection).
To assess the activity, the criteria of McDougald and Hu 2001 (7) are taken into consideration: • the infection-caused mortality • the weight gain from the beginning to the end of the experiment • feed consumption • feed conversion • macroscopic assessment of the infection-related lesions in the appendices (caecum) and in the liver. In this assessment, score 0=no lesions and score 4=severe lesions.

[1] = direct infection no, study of Table 1
[2] = direct infection no, study of Table 2
[3] = direct infection yes, study of Table 1
[4] = direct infection yes, study of Table 2

O=[N+]([O-])c1ccc([As](=O)(O)O)cc1 [Nita., nitarsone]
Mean weight gain (g) between day 0 and the time of death [1]: 782 g
Mean weight gain (g) between day 0 and the time of death [2]: 725 g
Mean weight gain (g) between day 0 and the time of death [3]: 541 g
Mean weight gain (g) between day 0 and the time of death [4]: 426 g
Mean feed consumption between day 0 and day 14 (study of Table 1): 11.64 kg
Mean feed conversion between day 0 and day 14 (study of Table 1): 1.77
Mortality caused by histomoniasis (study of Table 1): 1
Mean feed consumption between day 0 and day 14 (study of Table 2): 9.82 kg
Mean feed conversion between day 0 and day 14 (study of Table 2): 1.79
Mortality caused by histomoniasis (study of Table 2): 2
Average lesions in the appendix [1]: 0.00
Infection-related lesions in the liver [1]: 0.00
Average lesions in the appendix [2]: 0.29
Infection-related lesions in the liver [2]: 0.21
Average lesions in the appendix [3]: 2.26
Infection-related lesions in the liver [3]: 0.13
Average lesions in the appendix [4]: 3.07
Infection-related lesions in the liver [4]: 0.79
